# Experimental data published in US20050004167A1, “Branched chain amino acid-dependent aminotransferase inhibitors and their use in the treatment of neurodegenerative diseases” (WARNER-LAMBERT COMPANY LLC, priority 2001, published 2005).
row,Compound,melting point
1,"O=C(NNS(=O)(=O)c1ccccc1)c1ccc2ncccc2c1 (hydrate or solvate) [Example 13, Quinoline-6-carboxylic acid 2-(phenylsulfonyl)hydrazide]",211 to 214 °C
2,"COc1cc(OC)c2cc(C(=O)NNS(=O)(=O)c3ccccc3)oc2c1 (hydrate or solvate) [Example 60, 2-Benzofurancarboxylic acid, 4,6-dimethoxy-, 2-(phenylsulfonyl)hydrazide]",230.6 to 231 °C
3,"Cc1c(C(=O)NNS(=O)(=O)c2ccccc2)oc2ccccc12 (hydrate or solvate) [Example 88, 2-Benzofurancarboxylic acid, 3-methyl-, 2-(phenylsulfonyl)hydrazide]",221.6 to 222.2 °C
4,"Cc1ccc2oc(C(=O)NNS(=O)(=O)c3ccccc3)cc2c1 (hydrate or solvate) [Example 77, Benzofurancarboxylic acid, 5-methyl-, 2-(phenylsulfonyl)hydrazide]",183.3 to 183.6 °C
5,"COc1ccc2cc(C(=O)NNS(=O)(=O)c3ccccc3)oc2c1 (hydrate or solvate) [Example 56, 2-Benzofurancarboxylic acid, 6-methoxy-, 2-(phenylsulfonyl)hydrazide]",224.9 to 225.8 °C
6,"O=C(NNS(=O)(=O)c1ccccc1)c1nccc2ccccc12 (hydrate or solvate) [Example 152, Isoquinoline-1-carboxylic acid 2-(phenylsulfonyl)hydrazide]",198 to 200 °C
7,"Cc1cccc(S(=O)(=O)NNC(=O)c2cnc3ccccc3c2)c1 (hydrate or solvate) [Example 129, 3-Quinolinecarboxylic acid, 2-[(3-methylphenyl)sulfonyl]hydrazide]",238.6 to 239.4 °C
8,"O=C(NNS(=O)(=O)c1ccccc1)c1ccc2[nH]ccc2c1 (hydrate or solvate) [Example 153, 1H-Indole-5-carboxylic acid 2-(phenylsulfonyl)hydrazide]",209 to 211 °C
9,"COc1c(C(=O)NNS(=O)(=O)c2ccccc2)oc2cc3ccccc3cc12 (hydrate or solvate) [Example 68, Naptho[2,3-b]furan-2-carboxylic acid, 3-methoxy-, 2-(phenylsulfonyl)hydrazide]",205.7 to 207.1 °C
10,"O=C(NNS(=O)(=O)c1ccccc1)c1ccc2c(c1)OCO2 (hydrate or solvate) [Example 10, Benzo[1,3]dioxole-5-carboxylic acid 2-(phenylsulfonyl)hydrazide]",156 to 158 °C
11,CN(C)c1ccc(S(=O)(=O)NNC(=O)c2ccc3oc4ccccc4c3c2)cc1.Cl,187.6 to 188.8 °C
12,"COc1c(C(=O)NNS(=O)(=O)c2ccccc2)oc2c(OC)cccc12 (hydrate or solvate) [Example 61, 2-Benzofurancarboxylic acid, 3,7-dimethoxy-, 2-(phenylsulfonyl)hydrazide]",177.9 to 179.6 °C
13,"COc1c(C(=O)NNS(=O)(=O)c2ccccc2C(F)(F)F)oc2c(OC)cccc12 (hydrate or solvate) [Example 62, 2-Benzofurancarboxylic acid, 3,7-dimethoxy-, 2-[(2-trifluoromethylphenyl)-sulfonyl]hydrazide]",190.6 to 192.3 °C
14,"O=C(NNS(=O)(=O)c1cccc(Cl)c1)c1cnc2ccccc2c1 (hydrate or solvate) [Example 131, 3-Quinolinecarboxylic acid, 2-[(3-chlorophenyl)sulfonyl]hydrazide]",249.5 to 250.4 °C
15,"O=C(NNS(=O)(=O)c1ccc([N+](=O)[O-])cc1)c1ccc2oc3ccccc3c2c1 [Example 159, 2-Dibenzofurancarboxylic acid, 2-(4-nitrophenyl)sulfonyl hydrazide]",239.3 to 239.9 °C
16,CN(C)c1ccc2oc(C(=O)NNS(=O)(=O)c3ccccc3)cc2c1.Cl,218.3 to 218.9 °C
17,"O=C(NNS(=O)(=O)c1cccc(F)c1)c1ccc2ncccc2c1 (hydrate or solvate) [Example 132, 6-Quinolinecarboxylic acid, 2-[(3-fluorophenyl)sulfonyl]hydrazide]",250.6 to 251.3 °C
18,"CCCc1ccc(S(=O)(=O)Nc2ccc3oc(C(=O)NNS(=O)(=O)c4ccccc4)cc3c2)cc1 [Example 165, 2-Benzofurancarboxylic acid, 5-(4-propyllphenylsulfonylamino)-, 2-(phenylsulfonyl)hydrazide]",160.4 to 161.1 °C
19,"O=C(NNS(=O)(=O)c1ccccc1Br)c1cc2cc(Cl)cc(Cl)c2o1 (hydrate or solvate) [Example 73, 2-Benzofurancarboxylic acid, 5,7-dichloro 2-[(2-bromophenyl)sulfonyl]-hydrazide]",196.2 to 196.6 °C
20,"O=C(NNS(=O)(=O)c1ccccc1)c1cnc2ccccc2c1 (hydrate or solvate) [Example 154, Quinoline-3-carboxylic acid 2-(phenylsulfonyl)hydrazide]",249 to 250 °C
21,"O=C(NNS(=O)(=O)c1ccccc1)c1cc2cccc(Cl)c2o1 [Example 148, 7-Chloro-benzofuran-2-carboxylic acid 2-(phenylsulfonyl)hydrazide]",223 to 224 °C

row,Compound,melting point
1,"Cc1ccc2oc(C(=O)NNS(=O)(=O)c3ccccc3OC(F)(F)F)cc2c1 (hydrate or solvate) [Example 85, 2-Benzofurancarboxylic acid, 5-methyl-, 2-[[2-(trifluoromethoxy)phenyl]-sulfonyl]hydrazide]",226.7 to 227 °C
2,"Cc1ccc2oc(C(=O)NNS(=O)(=O)c3cccc(Br)c3)cc2c1 (hydrate or solvate) [Example 83, 2-Benzofurancarboxylic acid, 5-methyl-, 2-[3-(bromophenyl)sulfonyl]hydrazide]",207.2 to 209.9 °C
3,"O=C(NNS(=O)(=O)c1ccccc1)c1cc2cc([N+](=O)[O-])ccc2o1 (hydrate or solvate) [Example 34, 2-Benzofurancarboxylic acid, 5-nitro-, 2-(phenylsulfonyl)hydrazide]",207.7 to 208.1 °C
4,"COc1c(C(=O)NNS(=O)(=O)c2ccccc2)oc2c(-c3ccccc3)cccc12 (hydrate or solvate) [Example 67, 2-Benzofurancarboxylic acid, 3-methoxy-7-phenyl-, 2-(phenylsulfonyl)hydrazide]",186.7 to 187.3 °C
5,CN(C)c1ccccc1S(=O)(=O)NNC(=O)c1ccc2oc3ccccc3c2c1.Cl,103.2 to 103.9 °C
6,"COc1ccc2oc(C(=O)NNS(=O)(=O)c3ccccc3)c(OC(C)C)c2c1 (hydrate or solvate) [Example 57, 2-Benzofurancarboxylic acid, 5-methoxy-3-(1-methylethoxy), 2-(phenylsulfonyl)-hydrazide]",127 to 129 °C
7,"Cc1ccc2oc(C(=O)NNS(=O)(=O)c3ccccc3C)cc2c1 (hydrate or solvate) [Example 81, 2-Benzofurancarboxylic acid, 5-methyl-, 2-[2-(methylphenyl)sulfonyl]hydrazide]",174.5 to 174.7 °C
8,CN(C)c1ccc2[nH]c(C(=O)NNS(=O)(=O)c3ccccc3)cc2c1.Cl,251.6 to 252.7 °C
9,"Cc1ccc2oc(C(=O)NNS(=O)(=O)c3ccccc3C(F)(F)F)cc2c1 (hydrate or solvate) [Example 79, 2-Benzofurancarboxylic acid, 5-methyl-, 2-[[2-(trifluoromethyl)phenyl]sulfonyl]-hydrazide]",194 to 195.4 °C
10,"Cc1cccc2oc(C(=O)NNS(=O)(=O)c3ccccc3)cc12 (hydrate or solvate) [Example 87, 2-Benzofurancarboxylic acid, 4-methyl-, 2-(phenylsulfonyl)hydrazide]",217 to 218 °C
11,"Cc1ccc2oc(C(=O)NNS(=O)(=O)c3ccccc3)c(C)c2c1 (hydrate or solvate) [Example 89, 2-Benzofurancarboxylic acid, 3,5-dimethyl-, 2-(phenylsulfonyl)hydrazide]",225.9 to 227.1 °C
12,"O=C(NNS(=O)(=O)c1ccccc1[N+](=O)[O-])c1ccc2oc3ccccc3c2c1 [Example 162, 2-Dibenzofurancarboxylic acid, 2-[(2-nitrophenyl)sulfonyl]hydrazide]",223.4 to 224.1 °C
13,"Cc1cccc(S(=O)(=O)NNC(=O)c2ccc3ncccc3c2)c1 (hydrate or solvate) [Example 128, 6-Quinolinecarboxylic acid, 2-[(3-methylphenyl)sulfonyl]hydrazide]",234 to 234.6 °C
14,"COc1cccc2cc(C(=O)NNS(=O)(=O)c3ccccc3C(F)(F)F)oc12 (hydrate or solvate) [Example 54, 2-Benzofurancarboxylic acid, 7-methoxy-, 2-[[2-(trifluoromethyl)phenyl]-sulfonyl]hydrazide]",156.8 to 157.6 °C
15,"O=C(NNS(=O)(=O)c1cccc(F)c1)c1cnc2ccccc2c1 (hydrate or solvate) [Example 133, 3-Quinolinecarboxylic acid, 2-[(3-fluorophenyl)sulfonyl]hydrazide]",247.8 to 248.4 °C
16,"CC(C)Nc1ccc2oc(C(=O)NNS(=O)(=O)c3ccccc3)cc2c1 [Example 164, 2-Benzofurancarboxylic acid, 5-(N-isopropylamino)-, 2-(phenylsulfonyl)hydrazide]",94.7 to 95.5 °C
17,"Cc1cccc2cc(C(=O)NNS(=O)(=O)c3ccccc3)oc12 (hydrate or solvate) [Example 86, 2-Benzofurancarboxylic acid, 7-methyl-, 2-(phenylsulfonyl)hydrazide]",217.5 to 218 °C
18,"Cc1ccc(S(=O)(=O)Nc2ccc3oc(C(=O)NNS(=O)(=O)c4ccccc4)cc3c2)cc1 [Example 161, 2-Benzofurancarboxylic acid, 5-(4-methylphenylsulfonylamino)-, 2-(phenylsulfonyl)hydrazide]",181 to 183 °C
19,"O=C(NNS(=O)(=O)c1ccccc1)c1cc2cc([N+](=O)[O-])ccc2[nH]1 [Example 170, 2-Indolecarboxylic acid, 5-nitro-2-phenylsulfonyl hydrazide]",268.2 to 269.1 °C
20,"O=C(NNS(=O)(=O)c1cccc(Cl)c1)c1ccc2ncccc2c1 (hydrate or solvate) [Example 130, 6-Quinolinecarboxylic acid, 2-[(3-chlorophenyl)sulfonyl]hydrazide]",238.4 to 239.1 °C
